In patent US9988379B2, “GPR40 receptor agonist, methods of preparing the same, and pharmaceutical compositions containing the same as an active agent” (LG CHEM, LTD., priority 2012, dated 2018):

Target: T1, human GPR40 (Homo sapiens, UniProt O14842)
T1 construct: expressed in transfected cells; host or cells: CHO-K1
Assay: Induction of Ca2+ (calcium flux assay) using human GPR40 expression cell line
Format: cell-based
Settings: read-out: EC0.5
Protocol: Evaluation of the Test Compounds for Induction of Ca^2+ Using Human GPR40 Expression Cell Line
The cell line expressing human GPR40 was generated by transfection of the GPR40 expression vector into CHO-K1 cell, and used in the following calcium flux assay.
The cell line was cultured in cell-culture medium (F-12 (Invitrogen) supplemented with 10% (v/v) FBS (Fetal Bovine Serum; Invitrogen), 0.5 mg/ml Geneticin (Invitrogen) and 1% (v/v) Antibiotic-Antimycotic solution (Invitrogen)) under the condition of 5% CO2 and 37° C. For calcium flux assay, the cells were diluted with the cell-culture medium to a concentration of 5×10^5 cells/ml, and the diluted cell suspension was dispensed in amount of 100 μl/well to a 96-well transparent bottom black polystyrene cell culture plate (Corning) and then cultured for 24 hours. The following concentrations of test compounds were added to these cells, and then the changes in intracellular calcium concentration were measured by FlexStation II384 (Molecular Devices). The following solution was prepared before the measurement.
First, a buffer solution for assay was prepared for use in the manufacture of fluorescent dye solution. This buffer solution was prepared by adding 1M HEPES solution (Invitrogen) to HBSS (Hanks' Balanced Salt Solution) (Invitrogen) and then adding 1M NaOH (Nacalai Tesque) to adjust pH to 7.4. Then the fluorescent dye solution was prepared according to the manufacturer's instruction attached to Calcium 5 Assay Kit (Molecular Devices), and the final DMSO concentration was adjusted to 2%.
The fluorescent dye solution was added in an amount of 100 μl/well to supernatant of the cell culture plate cultured for 24 hours. The plate was cultured for 1 hour under the condition of 5% CO2 and 37° C. so that the fluorescent dye was inserted into the cell.
Test compounds (i.e., the compounds prepared in the Examples) dissolved in dimethyl sulfoxide (DMSO ACROS) were diluted 200-fold in the buffer solution for assay to prepare compound solutions corresponding to the respective concentrations. […] 50 μl of the prepared sample solutions was added to each well of 96-well polypropylene plates (NUNC), and thereby a compound plate was prepared. Finally, the compound plate and the cell culture plate cultured for 1 hour with the fluorescent dye were placed in FlexStation II384.
After the above pre-treatment, the change in the intracellular calcium concentration when each concentration of the test compound solutions was added at 50 μl was measured by FlexStation II^384.
Then, the relative activity values depending on the concentration of the compound were plotted using Prism 4 software (GraphPad) to calculate the EC0.5 value.

T1 sequence (O14842 whole entry): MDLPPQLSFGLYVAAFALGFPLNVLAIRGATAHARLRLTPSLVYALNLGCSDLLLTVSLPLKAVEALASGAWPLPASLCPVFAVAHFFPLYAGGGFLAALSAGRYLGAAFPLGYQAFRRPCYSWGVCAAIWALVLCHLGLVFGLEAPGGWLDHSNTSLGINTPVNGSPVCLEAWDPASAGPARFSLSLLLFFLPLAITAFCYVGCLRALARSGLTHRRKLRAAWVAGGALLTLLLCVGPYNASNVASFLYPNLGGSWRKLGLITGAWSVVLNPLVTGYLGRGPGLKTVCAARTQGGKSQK

Compound: CC#C[C@@H](CC(=O)O)c1ccc(OCc2ccc3c(cnn3CC3CCCO3)c2)cc1 (stereo partly drawn) [Example 151, (S)-3-{4-[1-(tetrahydrofuran-2-ylmethyl)-1H-indazol-5-ylmethoxy]-phenyl}-hex-4-ynoic acid]
- EC50: 1 to 50 nM

Compound: O=C(O)CCc1ccc(OCc2ccc3cnn(Cc4ccccc4)c3c2)cc1F [Example 106, 3-[4-(1-benzyl-1H-indazol-6-ylmethoxy)-2-fluoro-phenyl]-propanoic acid]
- EC50: 1 to 50 nM

Compound: CC#C[C@@H](CC(=O)O)c1ccc(OCc2ccc3ccn(Cc4ccccc4F)c3c2C)cc1 [Example 37, (S)-3-{4-[1-(2-fluoro-benzyl)-7-methyl-1H-indol-6-ylmethoxy]-phenyl}-hex-4-ynoic acid]
- EC50: 40 nM

Compound: O=C(O)C[C@@H](c1ccc(OCc2ccc3cnn(Cc4ccc(F)cc4)c3c2)cc1)c1ccon1 [Example 86, (S)-3-{4-[1-(4-fluoro-benzyl)-1H-indazol-6-ylmethoxy]-phenyl}-3-isoxazol-3-yl-propanoic acid]
- EC50: 10 nM

Compound: O=C(O)CC1CCCc2cc(OCc3ccc4cnn(Cc5ccccc5)c4c3)ccc21 (centres unmarked) [Example 110, [6-(1-benzyl-1H-indazol-6-ylmethoxy)-1,2,3,4-tetrahydro-naphthalen-1-yl]-acetic acid]
- EC50: 200 nM

Compound: Cc1ccccc1-c1cn(C)c2ccc(COc3ccc(CCC(=O)O)cc3)cc12 [Example 21, 3-[4-(1-methyl-3-o-tolyl-1H-indol-5-ylmethoxy)-phenyl]-propanoic acid]
- EC50: ≥ 500 nM

Compound: O=C(O)CCc1ccc(NCc2ccc3ccn(-c4ccsc4)c3c2Cl)cc1 [Example 8, 3-{4-[(7-chloro-1-thiophen-3-yl-1H-indol-6-ylmethyl)-amino]-phenyl}-propanoic acid]
- EC50: ≥ 500 nM

Compound: CC#C[C@@H](CC(=O)O)c1ccc(OCc2cc(C)c3nn(CC(C)C)cc3c2)cc1 [Example 140, (S)-3-[4-(2-isobutyl-7-methyl-2H-indazol-5-ylmethoxy)-phenyl]-hex-4-ynoic acid]
- EC50: 4 nM

Compound: CC#C[C@@H](CC(=O)O)c1ccc(OCc2ccc3ccn(Cc4ccc(C)nc4)c3c2C)cc1 [Example 81, (S)-3-{4-[7-methyl-1-(6-methyl-pyridin-3-ylmethyl)-1H-indol-6-ylmethoxy]-phenyl}-hex-4-ynoic acid]
- EC50: 1 to 50 nM

Compound: CC#C[C@@H](CC(=O)O)c1ccc(OCc2ccc3cnn(Cc4cccnc4)c3c2)cc1 [Example 79, (S)-3-[4-(1-pyridin-3-ylmethyl-1H-indazol-6-ylmethoxy)-phenyl]-hex-4-ynoic acid]
- EC50: 1 to 50 nM

Compound: N#CC(CC(=O)O)c1ccc(OCc2ccc3c(cnn3Cc3ccccc3)c2)cc1 (centres unmarked) [Example 162, 3-[4-(1-benzyl-1H-indazol-5-ylmethoxy)-phenyl]-3-cyano-propanoic acid]
- EC50: 20 nM

Compound: CC#C[C@@H](CC(=O)O)c1ccc(OCc2cccc3c2cnn3Cc2ccc(F)cc2)cc1 [Example 71, (S)-3-{4-[1-(4-fluoro-benzyl)-1H-indazol-4-ylmethoxy]-phenyl}-hex-4-ynoic acid]
- EC50: 20 nM

Compound: CC#C[C@@H](CC(=O)O)c1ccc(OCc2ccc3ccn(Cc4c(F)cccc4F)c3c2C)cc1 [Example 33, (S)-3-{4-[1-(2,6-difluoro-benzyl)-7-methyl-1H-indol-6-ylmethoxy]-phenyl}-hex-4-ynoic acid]
- EC50: 20 nM

Compound: CC#C[C@@H](CC(=O)O)c1ccc(OCc2ccc3c(CN4CCCC4)nn(CC(C)C)c3c2C)cc1 [Example 217, (S)-3-[4-(1-isobutyl-7-methyl-3-pyrrolidin-1-ylmethyl-1H-indazol-6-ylmethoxy)-phenyl]-hex-4-ynoic acid]
- EC50: 20 nM

Compound: COC(CC(=O)O)c1ccc(OCc2ccc3c(cnn3Cc3ccccc3)c2)cc1 (centres unmarked) [Example 155, 3-[4-(1-benzyl-1H-indazol-5-ylmethoxy)-phenyl]-3-methoxy-propanoic acid]
- EC50: 50 to 500 nM

Compound: O=C(O)C[C@@H](c1ccc(OCc2ccc3cn[nH]c3c2)cc1)c1ccon1 [Example 102, (S)-3-[4-(1H-indazol-6-ylmethoxy)-phenyl]-3-isoxazol-3-yl-propanoic acid]
- EC50: 400 nM

Compound: CC#C[C@@H](CC(=O)O)c1ccc(OCc2ccc3c(cnn3CCc3ccccc3)c2)cc1 [Example 134, (S)-3-[4-(1-phenethyl-1H-indazol-5-ylmethoxy)-phenyl]-hex-4-ynoic acid]
- EC50: 4 nM

Compound: CC#C[C@@H](CC(=O)O)c1ccc(OCc2ccc3ccn(Cc4csc(C)n4)c3c2C)cc1 [Example 57, (S)-3-{4-[7-methyl-1-(2-methyl-thiazol-4-ylmethyl)-1H-indol-6-ylmethoxy]-phenyl}-hex-4-ynoic acid]
- EC50: 1 to 50 nM

Compound: Cc1cnc(Cn2ccc3ccc(COc4ccc([C@H](CC(=O)O)c5ccon5)cc4)c(C)c32)cn1 [Example 92, (S)-3-isoxazol-3-yl-3-{4-[7-methyl-1-(5-methyl-pyrazin-2-ylmethyl)-1H-indol-6-ylmethoxy]-phenyl}-propanoic acid]
- EC50: 1 to 50 nM

Compound: O=C(O)CCc1ccc(NCc2ccc3ccn(-c4ccsc4)c3c2)cc1 [Example 3, 3-{4-[(1-thiophen-3-yl-1H-indol-6-ylmethyl)-amino]-phenyl}-propanoic acid]
- EC50: 10 nM

Compound: CC#C[C@@H](CC(=O)O)c1ccc(OCc2ccc3ccn(Cc4ccc(Cl)nc4)c3c2C)cc1 [Example 46, (S)-3-{4-[1-(6-chloro-pyridin-3-ylmethyl)-7-methyl-1H-indol-6-ylmethoxy]-phenyl}-hex-4-ynoic acid]
- EC50: 1 to 50 nM

Compound: CC#C[C@@H](CC(=O)O)c1ccc(OCc2cccc3c2cnn3CC2CC2)cc1 [Example 199, (S)-3-[4-(1-cyclopropylmethyl-1H-indazol-4-ylmethoxy)-phenyl]-hex-4-ynoic acid]
- EC50: 17 nM

Compound: CC#C[C@@H](CC(=O)O)c1ccc(OCc2ccc3ccn(Cc4ccccc4C)c3c2C)cc1 [Example 36, (S)-3-{4-[7-methyl-1-(2-methyl-benzyl)-1H-indol-6-ylmethoxy]-phenyl}-hex-4-ynoic acid]
- EC50: 60 nM

Compound: CC#C[C@@H](CC(=O)O)c1ccc(OCc2cccc3c2c(F)nn3CCCC)cc1 [Example 198, (S)-3-[4-(1-butyl-3-fluoro-1H-indazol-4-ylmethoxy)-phenyl]-hex-4-ynoic acid]
- EC50: 16 nM

Compound: Cc1cc(F)ccc1-n1ccc2cc(F)c(COc3ccc(CCC(=O)O)cc3)cc21 [Example 23, 3-{4-[5-fluoro-1-(4-fluoro-2-methyl-phenyl)-1H-indol-6-ylmethoxy)-phenyl]-propanoic acid]
- EC50: 4 nM

Compound: CC#C[C@@H](CC(=O)O)c1ccc(OCc2ccc3c(c2)n(C)c(=O)n3Cc2ccccc2)cc1 [Example 161, (S)-3-[4-(1-benzyl-3-methyl-2-oxo-2,3-dihydro-1H-benzoimidazol-5-ylmethoxy)-phenyl]-hex-4-ynoic acid]
- EC50: 5 nM

Compound: CC#C[C@@H](CC(=O)O)c1ccc(OCc2ccc3ccn(Cc4ccc(S(C)(=O)=O)cc4)c3c2C)cc1 [Example 27, (S)-3-{4-[1-(4-methanesulfonyl-benzyl)-7-methyl-1H-indol-6-ylmethoxy]-phenyl}-hex-4-ynoic acid]
- EC50: 30 nM

Compound: CC(C)Cn1ncc2cc(COc3ccc4c(c3)OCCC4CC(=O)O)ccc21 (centres unmarked) [Example 133, [7-(1-isobutyl-1H-indazol-5-ylmethoxy)-chroman-4-yl]-acetic acid]
- EC50: 400 nM

Compound: CC#C[C@@H](CC(=O)O)c1ccc(OCc2ccc3ccn(Cc4ncccn4)c3c2C)cc1 [Example 64, (S)-3-[4-(7-methyl-1-pyrimidin-2-ylmethyl-1H-indol-6-ylmethoxy)-phenyl]-hex-4-ynoic acid]
- EC50: 50 to 500 nM
